In the NIST ThermoML archive (doi:10.1021/je9008574):
Values joined by “and” are separate entries in the source; they are usually repeats but may differ in a detail not shown here. Equal values may be shown once.

Conditions: Crystal

[Cl-].[Cl-].[Ga+2] [gallium(II) chloride]
Conditions | vapor or sublimation pressure
372 K | 4.571e-05 kPa
374 K | 3.09e-05 kPa
375 K | 6.166e-05 kPa and 4.571e-05 kPa and 3.388e-05 kPa
378 K | 4.571e-05 kPa
378.5 K | 6.166e-05 kPa
379 K | 9.12e-05 kPa
381 K | 7.762e-05 kPa
381.5 K | 6.761e-05 kPa
382.5 K | 9.12e-05 kPa
383.5 K | 0.0001202 kPa
384 K | 0.0001202 kPa and 0.000123 kPa
385 K | 0.0001072 kPa
386 K | 0.0001514 kPa and 0.0001778 kPa
386.5 K | 0.000123 kPa and 0.0001023 kPa
387 K | 0.0001862 kPa
387.5 K | 0.000123 kPa
388.5 K | 0.0001778 kPa
389 K | 0.0002089 kPa
390 K | 0.0002399 kPa
390.5 K | 0.0001549 kPa
391 K | 0.0001698 kPa and 0.0001862 kPa
391.5 K | 0.0002399 kPa and 0.0002754 kPa
392 K | 0.000302 kPa
393 K | 0.0001862 kPa
393.5 K | 0.000302 kPa
394 K | 0.0002455 kPa and 0.0003311 kPa and 0.0002138 kPa
395 K | 0.0002754 kPa
396 K | 0.0002951 kPa
396.5 K | 0.000309 kPa
397.5 K | 0.000389 kPa and 0.0005248 kPa
398 K | 0.0002951 kPa and 0.0004169 kPa and 0.0004467 kPa
398.5 K | 0.0004786 kPa
399 K | 0.0003388 kPa and 0.0004786 kPa
399.5 K | 0.0003802 kPa and 0.0003981 kPa and 0.000302 kPa
401 K | 0.0005129 kPa
402 K | 0.0007244 kPa and 0.0007413 kPa
402.5 K | 0.0006607 kPa and 0.000389 kPa
403 K | 0.0006607 kPa and 0.0004786 kPa
403.5 K | 0.0005495 kPa
404 K | 0.0007762 kPa
405 K | 0.0006761 kPa and 0.0005888 kPa
405.5 K | 0.0007762 kPa
406 K | 0.000955 kPa and 0.0006761 kPa
406.5 K | 0.0008913 kPa
407.5 K | 0.000955 kPa and 0.0007762 kPa
408 K | 0.0007079 kPa
409 K | 0.0007762 kPa and 0.001023 kPa and 0.0007079 kPa
410 K | 0.001202 kPa
410.5 K | 0.000871 kPa and 0.001259 kPa and 0.001072 kPa
411 K | 0.001023 kPa
411.5 K | 0.001318 kPa and 0.001549 kPa
413 K | 0.0009772 kPa and 0.001445 kPa
413.5 K | 0.001514 kPa and 0.001445 kPa
414 K | 0.001202 kPa and 0.001259 kPa and 0.001072 kPa
414.5 K | 0.001288 kPa
415 K | 0.002138 kPa
415.5 K | 0.001259 kPa and 0.001905 kPa and 0.001862 kPa
416 K | 0.001413 kPa and 0.001778 kPa
416.5 K | 0.001905 kPa and 0.001549 kPa and 0.001288 kPa
417 K | 0.001585 kPa and 0.001549 kPa
417.5 K | 0.002089 kPa and 0.001698 kPa
418 K | 0.002138 kPa
418.5 K | 0.002399 kPa
419 K | 0.002399 kPa and 0.002138 kPa
420 K | 0.00195 kPa and 0.00263 kPa
421 K | 0.003388 kPa and 0.002138 kPa
421.5 K | 0.002138 kPa and 0.00302 kPa and 0.002951 kPa
422 K | 0.002138 kPa and 0.002344 kPa
422.5 K | 0.003236 kPa and 0.00302 kPa
423.5 K | 0.002291 kPa
424 K | 0.003802 kPa
424.5 K | 0.002512 kPa and 0.002818 kPa
425.5 K | 0.004266 kPa
426 K | 0.003981 kPa [middle of 5 runs]
427 K | 0.002754 kPa
427.5 K | 0.004571 kPa and 0.003467 kPa
428 K | 0.003236 kPa
428.5 K | 0.003388 kPa and 0.004677 kPa
429 K | 0.005248 kPa and 0.005129 kPa
430 K | 0.004365 kPa and 0.005248 kPa and 0.003311 kPa
430.5 K | 0.006026 kPa
431 K | 0.003715 kPa
432 K | 0.006457 kPa and 0.006761 kPa
432.5 K | 0.004365 kPa
433 K | 0.007079 kPa
434 K | 0.006026 kPa and 0.005495 kPa
435.5 K | 0.007943 kPa
436 K | 0.005623 kPa and 0.008318 kPa and 0.005495 kPa
437 K | 0.008913 kPa
438 K | 0.007586 kPa
439 K | 0.01 kPa
440 K | 0.01096 kPa and 0.01072 kPa
441 K | 0.00871 kPa and 0.007762 kPa
